Measurements as given in patent publication US4535075A, “Dithiolane derivative, process for producing the same and use thereof” (Nihon Nohyaku Co., Ltd., priority 1982, dated 1985).

Tested on: liver damage induced by carbon tetrachloride
Assay: Protective (Controlling) effect on liver damage induced by carbon tetrachloride
Format: in vivo, mice (dd strain)
Conditions: for Liver Damage Index: CCl4 alone 5.0, average of 5 mice; for p-GPT: CCl4 alone >2,100
Text: Protective (Controlling) Effect on liver damage induced by carbon tetrachloride.
Carbon tetrachloride administration induces centrilobular necrosis of the liver associated with loss of diphosphopyridine nucleotide, hepatic glycogen, coenzyme A and increase in neutral fat. Release of several enzymes from the hepatocytes, and increases of enzyme activities in the plasma are recognized as the result of the damage of the liver.
A suitable means for evaluating the degree induced by carbon tetrachloride or the degree of protection afforded by drugs is to study the plasma glutamic-pyruvic transaminase (p-GPT) activity. […]
After 6 hours, carbon tetrachloride was administered orally 0.05 ml/kg.
Animals were killed 24 hours after carbon tetrachloride administration, and the liver was grossly observed.
The plasma was obtained by centrifugation. Activity of p-GPT were determined by the method of Reitman and Frankel and expressed in Karmen units.
Score for liver damage index was as follows:
1 Each figure indicated average of 5 mice.

[1] = 250 mg/kg p.o., CCl4 0.05 ml/kg after 6 h, 24 h
[2] = 250 mg/kg p.o., CCl4 0.05 ml/kg after 6 h, 24 h, 0 Normal, 2 Slightly recognized, 4 Clearly observable damage, 6 Heavy damage

| Structure (SMILES) | Liver Damage Index (administered at 100 mg/kg p.o., scale 0 Normal to 6 Heavy damage) | p-GPT (administered at 100 mg/kg p.o.) | p-GPT [1] | Liver Damage Index [2] |
| --- | --- | --- | --- | --- |
| CCOC(=O)C(C(=O)c1ccccc1)=C1SC(O)C(O)S1 (stereo not drawn) [Compound 56] | 4.0 | > 1418 Karmen units |  |  |
| C=CCOC(=O)C(C(=O)OCC=C)=C1SC2OC(=S)OC2S1 (stereo not drawn) [Compound 112, 7-bis(allyloxycarbonyl)methylene-3-thioxo-2,4-dioxa-6,8-dithiabicyclo[3,3,0]octane] |  |  | 20.2 Karmen units | 0.6 |
| CCOC(=O)C(C(=O)CC(C)C)=C1SC2OC(=O)OC2S1 (stereo not drawn) [Compound 104] |  |  | 17.6 Karmen units | 0 |
| CC(=O)C(C(=O)OC(C)(C)C)=C1SC2OC(=O)OC2S1 (stereo not drawn) [Compound 94, 7-(methylcarbonyl-tert-butoxycarbonyl)methylene-3-oxo-2,4-dioxa-6,8-dithiabicyclo[3,3,0]octane] |  |  | 26.5 Karmen units | 0.8 |
| COC(=O)C(C(=O)OC)=C1SC2OC(=O)OC2S1 (stereo not drawn) [Compound 72] |  |  | 32.3 Karmen units | 0 |
| CCCOC(=O)C(C(C)=O)=C1SC2OC(=O)OC2S1 (stereo not drawn) [Compound 90] |  |  | 23.2 Karmen units | 0.3 |
| CCCCC(=O)C(C(=O)OCC)=C1SC2OC(=O)OC2S1 (stereo not drawn) [Compound 103] |  |  | 14.7 Karmen units | 0 |
| CC(=O)OC1SC(=C(C(=O)OC(C)C)C(=O)OC(C)C)SC1O (stereo not drawn) [Compound 57, diisopropyl 4-hydroxy-5-methyl carbonyloxy-1,3-dithiolan-2-ylidenemalonate] |  |  | 262.0 Karmen units | 1.0 |
| CCOC(=O)C(C(=O)C(C)C)=C1SC2OC(=O)OC2S1 (stereo not drawn) [Compound 102] |  |  | 48.5 Karmen units | 1.2 |
| CC(=O)C(C(=O)OC(C)C)=C1SC2OC(=O)OC2S1 (stereo not drawn) [Compound 89] |  |  | 26.3 Karmen units | 0.4 |
| C#CCOC(=O)C(C(=O)OCC#C)=C1SC2OC(=O)OC2S1 (stereo not drawn) [Compound 85] |  |  | 30.3 Karmen units | 0 |
| CCCOC(=O)C(C(=O)OCCC)=C1SC(OC(=O)CCC(=O)O)C(OC(=O)CCC(=O)O)S1 (stereo not drawn) [Compound 68] |  |  |  | 2.0 |
| CCCCCOC(=O)C(C(=O)OCCCCC)=C1SC2OC(=O)OC2S1 (stereo not drawn) [Compound 80] |  |  | 71.1 Karmen units | 0.4 |
| CC(=O)C(C(=O)OCC(C)C)=C1SC2OC(=O)OC2S1 (stereo not drawn) [Compound 92] |  |  | 29.4 Karmen units | 0.8 |
| CC(C)COC(=O)C(C(=O)OCC(C)C)=C1SC2OC(=S)OC2S1 (stereo not drawn) [Compound 110] |  |  | 554.7 Karmen units | 1.2 |
| CC(=O)OC1SC(=C(C(=O)OC(C)C)C(=O)OC(C)C)SC1OC(C)=O (stereo not drawn) [Compound 58] |  |  | 42.0 Karmen units | 1.0 |
| COC(=O)C(C#N)=C1SC(O)C(O)S1 (stereo not drawn) [Compound 24] |  |  | 152 Karmen units | 1.0 |
| CCCCCCOC(=O)C(C#N)=C1SC(O)C(O)S1 (stereo not drawn) [Compound 33] |  |  | 93 Karmen units | 0.8 |
| CCCCOC(=O)C(C#N)=C1SC(O)C(O)S1 (stereo not drawn) [Compound 28] |  |  | 80 Karmen units | 0.4 |
| CCCCCCC(=O)C(C(=O)OCC)=C1SC(O)C(O)S1 (stereo not drawn) [Compound 54] |  |  | 188 Karmen units | 2.6 |
| CCCOC(=O)C(C(=O)OCCC)=C1SC(OC(=O)N(C)C)C(OC(=O)N(C)C)S1 (stereo not drawn) [Compound 64, di-n-propyl 4,5-bis (N,N-dimethylcarbamoyloxy)-1,3-dithiolane-2-ylidenemalonate] |  |  |  | 3.4 |
| CCCOC(=O)C(C(C)=O)=C1SC(OC(C)=O)C(OC(C)=O)S1 (stereo not drawn) [Compound 61] |  |  | 1260 Karmen units | 0.8 |
| CCCOC(=O)C(C#N)=C1SC(O)C(O)S1 (stereo not drawn) [Compound 26] |  |  | 24 Karmen units | 0.0 |
| CCC(C)OC(=O)C(C(=O)OC(C)CC)=C1SC(OC(=O)CCC(=O)O)C(OC(=O)CCC(=O)O)S1 (stereo not drawn) [Compound 71, di-sec-butyl 4,5-bis(2'-carboxyethylcarbonyloxy)-1,3-dithiolan-2-ylidenemalonate] |  |  |  | 2.2 |
| CCCOC(=O)C(C(=O)OCCC)=C1SC(OC(=O)OCC)C(OC(=O)OCC)S1 (stereo not drawn) [Compound 66] |  |  | 53.8 Karmen units | 0.2 |

| Structure (SMILES) | Liver Damage Index (administered at 100 mg/kg p.o., scale 0 Normal to 6 Heavy damage) | p-GPT (administered at 100 mg/kg p.o.) | p-GPT [1] | Liver Damage Index [2] |
| --- | --- | --- | --- | --- |
| CCOC(=O)C(C(=O)Cc1ccccc1)=C1SC(O)C(O)S1 (stereo not drawn) [Compound 55] |  |  | 105 Karmen units | 1.8 |
| CCCC(=O)C(C(=O)OCC)=C1SC2OC(=O)OC2S1 (stereo not drawn) [Compound 101] |  |  | 20.0 Karmen units | 0.2 |
| CCCCCOC(=O)C(C(C)=O)=C1SC2OC(=O)OC2S1 (stereo not drawn) [Compound 95] |  |  | 28.2 Karmen units | 0.8 |
| CC(C)COC(=O)C(C(=O)OC(C)C)=C1SC2OC(=O)OC2S1 (stereo not drawn) [Compound 86] |  |  | > 436.4 Karmen units | 0.6 |
| CCCOC(=O)C(C(=O)OCCC)=C1SC(OC(C)=O)C(OC(C)=O)S1 (stereo not drawn) [Compound 59] |  |  | 40.9 Karmen units | 0.4 |
| CCOC(=O)C(C(=O)C(C)C)=C1SC(O)C(O)S1 (stereo not drawn) [Compound 51] |  |  | 172 Karmen units | 1.6 |
| CC(C)OC(=O)C(C#N)=C1SC(O)C(O)S1 (stereo not drawn) [Compound 27, isopropyl 4,5-dihydroxy-1,3-dithiolan-2-ylidenecyanoacetate] |  |  | 23 Karmen units | 0.2 |
| C#CCOC(=O)C(C(C)=O)=C1SC2OC(=O)OC2S1 (stereo not drawn) [Compound 99] |  |  | 18.4 Karmen units | 0 |
| CCCCOC(=O)C(C(=O)OCCCC)=C1SC2OC(=O)OC2S1 (stereo not drawn) [Compound 76] |  |  | 84.8 Karmen units | 0.6 |
| CCCCCCC(=O)C(C(=O)OCC)=C1SC2OC(=O)OC2S1 (stereo not drawn) [Compound 105] |  |  | 107.4 Karmen units | 1.6 |
| CCC(C)OC(=O)C(C(=O)OC(C)CC)=C1SC2OC(=O)OC2S1 (stereo not drawn) [Compound 78] |  |  | 96.0 Karmen units | 0 |
| CC(C)(C)OC(=O)C(C(=O)OC(C)(C)C)=C1SC2OC(=O)OC2S1 (stereo not drawn) [Compound 79] |  |  | 66.0 Karmen units | 0.8 |
| CC(C)OC(=O)C(C(=O)OC(C)C)=C1SC(OC(=O)CCC(=O)O)C(OC(=O)CCC(=O)O)S1 (stereo not drawn) [Compound 69] |  |  |  | 2.2 |
| CC(C)CCOC(=O)C(C#N)=C1SC(O)C(O)S1 (stereo not drawn) [Compound 31] |  |  | 105 Karmen units | 0.6 |
| CCOC(=O)C(C#N)=C1SC(O)C(O)S1 (stereo not drawn) [Compound 25] |  |  |  | 2.0 |
| CCOC(=O)C(C(C)=O)=C1SC2OC(=O)OC2S1 (stereo not drawn) [Compound 88] |  |  | 211.6 Karmen units | 1.4 |
| CCOC(=O)C(C(=O)Cc1ccccc1)=C1SC2OC(=O)OC2S1 (stereo not drawn) [Compound 106] |  |  | 602.2 Karmen units | 1.0 |
| CC(C)COC(=O)C(C#N)=C1SC(O)C(O)S1 (stereo not drawn) [Compound 29] |  |  | 175 Karmen units | 1.0 |
| C=CCOC(=O)C(C(C)=O)=C1SC2OC(=O)OC2S1 (stereo not drawn) [Compound 98] |  |  | 16.9 Karmen units | 0 |
| CCCOC(=O)C(C(=O)OCCC)=C1SC2OC(=S)OC2S1 (stereo not drawn) [Compound 108] |  |  | 31.0 Karmen units | 0 |
| CCCCCOC(=O)C(C#N)=C1SC(O)C(O)S1 (stereo not drawn) [Compound 30] |  |  | 116 Karmen units | 0.6 |
| CC(C)OC(=O)C(C(=O)OC(C)C)=C1SC2OC(=S)OC2S1 (stereo not drawn) [Compound 109] |  |  | 139.3 Karmen units | 0.4 |
| CC(C)COC(=O)C(C(=O)OCC(C)C)=C1SC2OC(=O)OC2S1 (stereo not drawn) [Compound 77] |  |  | 21.2 Karmen units | 0.2 |
| CCCCOC(=O)C(C(C)=O)=C1SC2OC(=O)OC2S1 (stereo not drawn) [Compound 91] |  |  | 27.9 Karmen units | 0.8 |
